Data published in PubChem BioAssay (NCI).
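Method: 48-hour compound exposure of cells in 96-well plates, five concentrations, linear interpolation of endpoints. GI50 = concentration required for 50% inhibition of growth. TGI: concentration producing complete growth inhibition.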

Assays:
Assay in all cases: inhibition of tumour cell growth, NCI panel, 48 h
BT-549 breast = test system: BT-549 breast
MCF7 breast = test system: MCF7 breast
MDA-MB-435 = test system: MDA-MB-435
DU-145 prostate = test system: DU-145 prostate
MDA-MB-231 breast = test system: MDA-MB-231 breast
DLD-1 colon = test system: DLD-1 colon
LXFL 529 NSCLC = test system: LXFL 529 NSCLC
DMS 114 small cell lung = test system: DMS 114 small cell lung
DMS 273 small cell lung = test system: DMS 273 small cell lung

| SMILES | GI50 (BT-549 breast) | TGI (BT-549 breast) | GI50 (MCF7 breast) | TGI (MCF7 breast) | GI50 (MDA-MB-435) | TGI (MDA-MB-435) | GI50 (DU-145 prostate) | TGI (DU-145 prostate) | GI50 (MDA-MB-231 breast) | TGI (MDA-MB-231 breast) | TGI (DLD-1 colon) | TGI (LXFL 529 NSCLC) | TGI (DMS 114 small cell lung) | TGI (DMS 273 small cell lung) |
| --- | --- | --- | --- | --- | --- | --- | --- | --- | --- | --- | --- | --- | --- | --- |
| c1ccc(CNc2nc(Nc3ccc(-c4nc5ccccc5[nH]4)cc3)c3cn[nH]c3n2)cc1 | 2.03 µM | 5.27 µM | 1.95 µM | 6.35 µM | 1.97 µM | 5.15 µM | 3.33 µM | 12.5 µM | 2.11 µM | 4.97 µM | – | – | – | – |
| O=C1/C(=C\c2ccccc2)CN(C(=O)c2ccccc2F)C/C1=C\c1ccccc1 | 1.86 µM | 3.58 µM | 0.449 µM | 2.07 µM | 1.13 µM | 3.32 µM | 2.73 µM | 6.41 µM | 2 µM | 4.06 µM | – | – | – | – |
| C/C(=N\NC(=S)Nc1ccccc1)c1ccccn1 | 1.87 µM | 13.9 µM | 0.0148 µM | 11.8 µM | 0.67 µM | 4.28 µM | 0.746 µM | 3.03 µM | 0.0309 µM | 2.61 µM | – | – | – | – |
| CCOC(=O)/C(=C/c1c(-c2ccccc2)[nH]c2ccccc12)C(=O)c1ccc(Cl)cc1 | 8.82 µM | > 100 µM | 2.91 µM | > 100 µM | 3.02 µM | > 100 µM | 5.87 µM | > 100 µM | 4.74 µM | > 100 µM | – | – | – | – |
| COc1cccc(C2C3=C(COC3=O)N(CCO)c3cc4c(cc32)CCC4)c1 (configuration not stated) | 0.0819 µM | 1.19 µM | 0.0193 µM | > 18.1 µM | 0.0131 µM | 0.0334 µM | 0.0884 µM | 0.321 µM | 0.142 µM | 1.07 µM | – | – | – | – |
| CC1C2CC(CC2=O)C1(C)C (configuration not stated) | – | > 100 µM | – | > 100 µM | – | > 100 µM | – | > 100 µM | – | > 100 µM | – | – | – | – |
| COc1ccc(C2=NN(c3ccc(S(N)(=O)=O)cc3)C(c3ccc(Cl)cc3)C2)c(O)c1 (configuration not stated) | 4.07 µM | 13.6 µM | 2.08 µM | 8.66 µM | 3.26 µM | 13.8 µM | 5.88 µM | 20.7 µM | 9.89 µM | 27.4 µM | – | – | – | – |
| CC(=O)C(CN1CCOCC1)C(c1ccccc1)c1c(O)c2ccccc2oc1=O (configuration not stated) | – | > 100 µM | – | > 100 µM | – | > 100 µM | – | > 100 µM | – | > 100 µM | – | – | – | – |
| COc1ccc(C(NCCNC(c2ccc(OC)c(OC)c2)c2cc3c(cc2O)OCO3)c2cc3c(cc2O)OCO3)cc1OC (configuration not stated) | – | 6.22 µM | – | 3.36 µM | – | 4.11 µM | – | 8.51 µM | – | 8.14 µM | – | – | – | – |
| CCN1C(=O)N(CC)C2C1NN=c1s/c(=C\c3ccc([N+](=O)[O-])cc3)c(=O)n12 (configuration not stated) | 1.55 µM | 16.5 µM | 0.315 µM | > 100 µM | – | – | 0.424 µM | > 100 µM | 1.42 µM | > 44.2 µM | – | – | – | – |
| C=C1CCC2C3(C)COC(c4cccc(Cl)c4)OC3CCC2(C)C1/C=C/C1=CCOC1=O (configuration not stated) | 6.21 µM | > 100 µM | 3.8 µM | > 100 µM | 9.68 µM | > 100 µM | > 100 µM | > 100 µM | 6.84 µM | > 100 µM | – | – | – | – |
| Cc1ccc2c(c1)/C(=N\N=C/c1cn(C(C)C)c3ccccc13)C(=O)N2 | 3.58 µM | > 100 µM | 0.504 µM | > 100 µM | 2.16 µM | 10.3 µM | 8.17 µM | > 100 µM | 1.25 µM | 5.83 µM | – | – | – | – |
| C#CCSc1nnnn1-c1ccc(Br)c(C)c1 | 48.7 µM | > 100 µM | 28.4 µM | > 100 µM | 17.9 µM | 55.8 µM | 16.6 µM | 47.5 µM | 35.8 µM | > 100 µM | – | – | – | – |
| COC(=O)CC(CC(=O)C(=O)OC)C(=O)OC (configuration not stated) | – | – | – | – | – | – | – | – | – | – | > 100 µM | > 100 µM | – | – |
| Oc1ccc(-c2nc(-c3ccc(F)cc3)c(-c3ccncc3)[nH]2)cc1 | 17.7 µM | 64 µM | 19.4 µM | > 100 µM | 6.8 µM | 35.1 µM | 15.4 µM | > 100 µM | 11.2 µM | > 100 µM | – | – | – | – |
| CNS(=O)(=O)NN(C)S(=O)(=O)c1ccc(C)cc1 | – | – | – | – | – | – | – | – | – | – | > 100 µM | – | > 100 µM | – |
| CC1(C)OCC(C2OC(On3nnc4ccc(Cl)cc43)C3OC(C)(C)OC23)O1 (configuration not stated) | – | > 100 µM | – | > 100 µM | – | > 100 µM | – | > 100 µM | – | > 100 µM | – | – | – | – |
| CC1(C)CC(C2CC(C)(C)CC(C)(C)[C@H]2O)[C@@H](O)C(C)(C)C1 (some centres not stated) | – | – | – | – | – | – | – | – | – | – | – | > 100 µM | > 100 µM | > 100 µM |
| Cc1cc(N(CCC#N)CCC#N)ccc1N=Nc1ccc([N+](=O)[O-])cc1 | – | – | – | – | – | – | – | – | – | – | – | – | 33 µM | 44.4 µM |
| CC(=O)NNc1nc(C)c(C(/C=C/c2ccc3c(c2)OCO3)=N/NC(=O)c2ccncc2)s1 | – | > 100 µM | – | > 100 µM | – | > 100 µM | – | – | – | > 100 µM | – | – | – | – |
| C/C=C(\C)C(=O)O[C@@H]1C=CC(=O)O[C@H]1COC(=O)[C@H](C)O | – | – | 4.53 µM | 18.3 µM | 15.2 µM | 71.6 µM | 10.8 µM | 31.8 µM | 13.7 µM | 29.1 µM | – | – | – | – |
| Cn1cc(-c2nonc2-c2cn(C)c3ccc(Br)cc23)c2ccccc21 | 6.17 µM | > 100 µM | 2.83 µM | > 100 µM | – | – | 4.09 µM | > 100 µM | 3.67 µM | > 100 µM | – | – | – | – |
| C[C@@H](Oc1cc(-n2cnc3ccc(OCC4CCN(C)CC4)cc32)sc1C(N)=O)c1ccccc1C(F)(F)F | 1.37 µM | 4.75 µM | 0.0651 µM | 3.18 µM | 0.039 µM | 0.0959 µM | 0.0643 µM | 0.246 µM | 0.144 µM | 1.98 µM | – | – | – | – |
| COc1cc2c(cc1OCCCN1CCN(CCCOc3cc4c(cc3OC)C(=O)C3CCC[C@H]3C=N4)CC1)N=C[C@@H]1CCCC1C2=O (some centres not stated) | 1.7 µM | > 100 µM | 1.44 µM | > 100 µM | 5.89 µM | 30.3 µM | 2.41 µM | > 100 µM | 8.44 µM | > 26.6 µM | – | – | – | – |
| Nc1nccc(C#Cc2cncnc2Nc2ccc(OCc3cccc(F)c3)c(Cl)c2)n1 | 3.15 µM | 9.62 µM | 3.99 µM | 8.25 µM | 5.36 µM | > 23.8 µM | 4.37 µM | 7.81 µM | 5.56 µM | 13.1 µM | – | – | – | – |
